pIC50, pKi: −log10 of the molar value.
Legend:
[1] = target: T1, Aromatase (Homo sapiens, UniProt P11511); assay: Inhibition of human aromatase extracted from placental microsomes using [1beta-3H]androstenedione as substrate after 20 mins
T1 sequence (P11511 whole entry): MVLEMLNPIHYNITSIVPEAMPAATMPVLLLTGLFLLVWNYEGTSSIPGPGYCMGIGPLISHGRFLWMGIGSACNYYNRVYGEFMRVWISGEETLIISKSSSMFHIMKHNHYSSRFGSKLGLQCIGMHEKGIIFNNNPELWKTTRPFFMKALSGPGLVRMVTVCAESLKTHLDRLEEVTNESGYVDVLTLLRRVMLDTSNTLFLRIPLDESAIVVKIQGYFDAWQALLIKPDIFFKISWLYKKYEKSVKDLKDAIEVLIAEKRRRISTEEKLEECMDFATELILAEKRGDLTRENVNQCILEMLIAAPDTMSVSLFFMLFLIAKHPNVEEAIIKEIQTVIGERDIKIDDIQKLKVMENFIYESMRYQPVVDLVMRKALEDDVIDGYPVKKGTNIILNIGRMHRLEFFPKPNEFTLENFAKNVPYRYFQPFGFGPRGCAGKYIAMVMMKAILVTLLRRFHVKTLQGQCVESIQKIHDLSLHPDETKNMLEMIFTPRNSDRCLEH

[2] = target: T1, Aromatase
[3] = target: T1, Aromatase; assay: Inhibition of human aromatase extracted from placental microsomes using [1-3H]androstenedione as substrate at […]
[4] = target: T1, Aromatase; assay: Inhibition of human aromatase extracted from placental microsomes using [1beta-3H]androstenedione as substrate at 10 to 500 nM after 30 mins; settings: 0.5 h
[5] = target: T1, Aromatase; assay: Inhibition of human aromatase extracted from placental microsomes using [1beta-3H]androstenedione as substrate after 30 mins
[6] = target: T2, Aromatase (Rattus norvegicus, UniProt P22443); assay: Inhibition of aromatase in denucleated ovarian fraction extracted from PMSG pretreated Wistar rat by using testosterone as substrate at 1 uM
T2 sequence (P22443 whole entry): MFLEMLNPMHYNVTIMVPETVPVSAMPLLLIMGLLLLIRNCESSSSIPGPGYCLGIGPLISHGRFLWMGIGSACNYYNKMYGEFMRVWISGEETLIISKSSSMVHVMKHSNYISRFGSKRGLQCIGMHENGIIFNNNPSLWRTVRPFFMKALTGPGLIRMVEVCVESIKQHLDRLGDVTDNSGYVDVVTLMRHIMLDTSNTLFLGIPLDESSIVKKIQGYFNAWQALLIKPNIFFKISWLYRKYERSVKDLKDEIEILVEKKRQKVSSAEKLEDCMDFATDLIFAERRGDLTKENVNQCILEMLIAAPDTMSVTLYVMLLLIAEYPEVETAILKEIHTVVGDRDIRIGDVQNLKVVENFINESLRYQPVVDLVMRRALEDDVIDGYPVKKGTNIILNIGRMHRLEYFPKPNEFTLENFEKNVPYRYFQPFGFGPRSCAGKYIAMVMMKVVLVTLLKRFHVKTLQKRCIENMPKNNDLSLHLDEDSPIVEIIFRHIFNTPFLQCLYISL

[7] = target: T1, Aromatase; assay: Competitive inhibition of human aromatase extracted from placental microsomes by Lineweaver- Burk plots analysis in presence of 4-androstene-3,17-dione
[8] = target: T1, Aromatase; assay: Competitive inhibition of human aromatase extracted from placental microsomes by double reciprocal plot analysis in presence of 4-androstene-3,17-dione; settings: read-out: Ki(app)
[9] = target: T1, Aromatase; assay: Inhibition of human aromatase after 30 mins by fluorescence assay
[10] = target: T1, Aromatase; assay: Competitive inhibition of human aromatase extracted from placental microsomes after 10 mins by Lineweaver- Burk plots analysis in presence of [1beta-3H]androstenedione
[11] = target: T1, Aromatase; remark: listed apart in the source
[12] = target: T2, Aromatase; assay: Inhibition of rat aromatase extracted from PMSG-primed ovarian fraction using 4-[14C]androstenedione/androstenedione as substrate assessed as estrogen formation after 30 mins in NADPH-generating system; settings: 0.5 h
[13] = target: T1, Aromatase; assay: Inhibition of human aromatase extracted from placental microsomes using 4-[14C]androstenedione/androstenedione as substrate assessed as estrogen formation after 30 mins in NADPH-generating system; settings: 0.5 h
[14] = target: T1, Aromatase; assay: Inhibition of human aromatase extracted from placental microsomes using [1beta,2beta-3H]testosterone as substrate measured at 7 to 21 mins by scintillation counting analysis
[15] = target: T1, Aromatase; assay: Inhibition of human aromatase extracted from placental microsomes using [1beta,2beta-3H]androstenedione as substrate after 10 mins
[16] = target: T1, Aromatase; remark: listed apart in the source
[17] = Antitumor activity against NMU-induced mammary tumor in rat; assay type: functional
[18] = target: T1, Aromatase; assay: Inhibition of human aromatase extracted from placental microsomes at 520 nM after 10 mins
[19] = target: T1, Aromatase; assay: Time dependent inactivation of human aromatase extracted from placental microsomes using [1-3H]androstenedione as substrate
[20] = target: T1, Aromatase; assay: Inhibition of human aromatase extracted from placental microsomes using [1,2-3H]androstenedione as substrate after 30 mins by scintillation counting analysis
[21] = target: T1, Aromatase; remark: listed apart in the source

In the case of C[C@]12CC[C@H]3O[C@H]3[C@@H]1CC[C@@H]1[C@@H]2CC[C@]2(C)C(=O)CC[C@@H]12, the pIC50 [1] was 6.74.
In the case of C[C@]12CC[C@H]3[C@@H](CCC4=CC(=O)C=C[C@@]43C)[C@@H]1CC[C@@H]2O, the pKi [2] was 6.59.
Work on C[C@]12C=CC(=O)C=C1CC[C@@H]1[C@@H]2CC[C@]2(C)C(=O)OC[C@@H]12 yielded a pKi [2] of 6.59.
C[C@]12CCC(=O)C=C1C[C@@H](Sc1ccc(Cl)cc1)[C@@H]1[C@@H]2CC[C@]2(C)C(=O)CC[C@@H]12 gave an inhibition at […] [3] of 45%.
For C[C@]12CCC(=O)C=C1C[C@@H](Sc1ccc(Br)cc1)[C@@H]1[C@@H]2CC[C@]2(C)C(=O)CC[C@@H]12, the inhibition at […] [3] was 45%.
With C[C@]12CC[C@H]3[C@@H](Cc4noc5c4[C@]3(C)CC[C@@H]5O)[C@@H]1CC[C@@H]2O the “inhibition (INH)” value [4] was 50% and the pIC50 [5] was 3.92.
Work on C[C@]12CC[C@H]3[C@@H](CCC4=C(O)C(=O)CC[C@@]43C)[C@@H]1CC(=O)OC2 yielded an inhibition at 1 µM [6] of 34.8%.
In the case of CN(C)c1cccc2c(S(=O)(=O)Nc3ccc(S[C@@H]4CC5=CC(=O)CC[C@]5(C)[C@H]5CC[C@]6(C)C(=O)CC[C@H]6[C@H]45)cc3)cccc12, the pKi [7] was 7.62.
With C[C@]12CCC(=O)c3onc(c31)C[C@@H]1[C@@H]2CC[C@]2(C)C(=O)CC[C@@H]12 the “inhibition (INH)” value [4] was 50% and the pIC50 [5] was 5.72.
With C[C@]12C=CC(=O)C=C1C[C@@H](Sc1ccc3ccccc3c1)[C@@H]1[C@@H]2CC[C@]2(C)C(=O)CC[C@@H]12 the pKi [8] was 7.92.
For CN1N=C2[C@H](C[C@H]3[C@@H]4CCC5=CC(=O)C=C[C@]5(C)[C@H]4CC[C@]23C)[C@H]1c1ccccc1, the pIC50 [9] was 5.74.
C[C@]12C=CC(=O)C(Sc3ccccc3)=C1C=C[C@@H]1[C@@H]2CC[C@]2(C)C(=O)CC[C@@H]12 showed a pKi [10] of 8.01.
C[C@]12C=CC(=O)C=C1C=C(c1ccccc1)[C@@H]1[C@@H]2CC[C@]2(C)C(=O)CC[C@@H]12 showed a pKi [11] of 5.65.
COc1ccc([C@@H]2[C@H]3C[C@H]4[C@@H]5CCC6=CC(=O)C=C[C@]6(C)[C@H]5CC[C@]4(C)C3=NN2C)cc1 showed a pIC50 [9] of 5.74.
With C[C@]12C=CC(=O)C(Sc3ccccc3)=C1CC[C@@H]1[C@@H]2CC[C@]2(C)C(=O)CC[C@@H]12 the pKi [10] was 8.01.
In the case of C[C@]12C=CC(=O)C(O)=C1CC[C@@H]1[C@@H]2CC[C@]2(C)C(=O)CC[C@@H]12, the “inhibition (INH)” value [12] was 30% and the “inhibition (INH)” value [13] was 30%.
In the case of C[C@]12C=CC(=O)C(O)=C1C=C[C@@H]1[C@@H]2CC[C@]2(C)C(=O)CC[C@@H]12, the “inhibition (INH)” value [12] was 30% and the “inhibition (INH)” value [13] was 30%.
For C[C@@]12CCC[C@H]1[C@@H]1CCC3=CC(=O)C=C[C@]3(C)[C@H]1CC2, the pKi [2] was 6.59.
CC(=O)O[C@H]1CC[C@@]2(C)C(=C/C(=N\OCCCn3ccnc3)[C@H]3[C@@H]4CC[C@H](OC(C)=O)[C@@]4(C)CC[C@@H]32)C1 showed a pIC50 [14] of 4.92.
In the case of C[C@]12CC[C@H]3[C@@H](Cc4noc5c4[C@]3(C)CCC5=O)[C@@H]1CC[C@@H]2O, the “inhibition (INH)” value [4] was 50% and the pIC50 [5] was 4.73.
In the case of C[C@]12CC[C@H]3[C@@H](CCC4=CC(=O)CC[C@@]43[C@@H]3CS3)[C@@H]1CCC2=O, the pKi [2] was 8.70.
Work on C[C@]12C=CC(=O)C=C1C[C@@H](Sc1cccc3ccccc13)[C@@H]1[C@@H]2CC[C@]2(C)C(=O)CC[C@@H]12 yielded a pKi [8] of 7.92.
In the case of C[C@]12CCC(=O)C(SCF)=C1CC[C@@H]1[C@@H]2CC[C@]2(C)C(=O)CC[C@@H]12, the pIC50 [15] was 6.10.
With C[C@]12CCC(=O)C(F)=C1CC[C@@H]1[C@@H]2CC[C@]2(C)C(=O)CC[C@@H]12 the pKi [16] was 7.82 and the Activity [17] was 44%.
C[C@]12CCC(=O)C(Sc3ccccc3)=C1C=C[C@@H]1[C@@H]2CC[C@]2(C)C(=O)CC[C@@H]12 gave a pKi [10] of 8.01.
Compound C[C@]12CCC(=O)C=C1C[C@@H](Sc1ccc3ccccc3c1)[C@@H]1[C@@H]2CC[C@]2(C)C(=O)CC[C@@H]12 has a pKi [7] of 7.62.
In the case of C[C@]12CCC(=O)C(O)=C1C=C[C@@H]1[C@@H]2CC[C@]2(C)C(=O)CC[C@@H]12, the “inhibition (INH)” value [12] was 30% and the “inhibition (INH)” value [13] was 30%.
In the case of C[C@]12CC[C@H]3[C@@H](/C(=N/OCCCn4ccnc4)C=C4C[C@@H](O)CC[C@@]43C)[C@@H]1CC[C@@H]2O, the pIC50 [14] was 5.51.
C[C@@H]1OC(=O)C[C@H]2[C@@H]3CCC4=C(O)C(=O)CC[C@]4(C)[C@H]3CC[C@]12C showed an inhibition at 1 µM [6] of 23.3%.
With C[C@]12C=CC(=O)C=C1C=C(CCc1ccccc1)[C@@H]1[C@@H]2CC[C@]2(C)C(=O)CC[C@@H]12 the pKi [11] was 6.76.
For C[C@]12CCC(=O)C=C1[C@@H](Br)C[C@@H]1[C@@H]2CC[C@]2(C)C(=O)CC[C@@H]12, the inhibition at […] [18] was 45%.
In the case of C[C@]12CC[C@H]3[C@@H](CCC4=CC(=O)[C@H]5C[C@@H](O)[C@]43C5)[C@@H]1CCC2=O, the pKi [19] was 6.06.
With C[C@]12C=CC(=O)C=C1C[C@@H](Sc1ccc(Br)cc1)[C@@H]1[C@@H]2CC[C@]2(C)C(=O)CC[C@@H]12 the pKi [8] was 7.92.
Compound C[C@]12CCC(=O)C(Sc3ccccc3)=C1CC[C@@H]1[C@@H]2CC[C@]2(C)C(=O)CC[C@@H]12 has a pIC50 [20] of 6.72.
With C[C@]12C=CC(=O)C=C1CC[C@@H]1[C@@H]2CC[C@]2(C)C3=NN(c4ccccc4)[C@H](c4ccccc4)[C@H]3C[C@@H]12 the pIC50 [9] was 5.74.
C[C@]12CC[C@H]3[C@@H](CCC4=CC(=O)[C@H]5COC[C@]43C5)[C@@H]1CCC2=O showed a pKi [19] of 7.75.
For COc1ccc([C@@H]2[C@H]3C[C@H]4[C@@H]5CCC6=CC(=O)C=C[C@]6(C)[C@H]5CC[C@]4(C)C3=NN2c2ccccc2)cc1, the pIC50 [9] was 5.74.
For C[C@]12CCC(=O)C=C1C[C@@H](Sc1cccc3ccccc13)[C@@H]1[C@@H]2CC[C@]2(C)C(=O)CC[C@@H]12, the pKi [7] was 7.62.
Compound C[C@]12CC[C@H]3[C@@H](CCC4=CC(=O)[C@H]5C[C@H](O)[C@]43C5)[C@@H]1CCC2=O has a pKi [19] of 6.03.
With C[C@]12CCC(=O)C(Oc3ccccc3)=C1C[C@@H](Sc1ccccc1)[C@@H]1[C@@H]2CC[C@]2(C)C(=O)CC[C@@H]12 the pIC50 [20] was 5.78.
In the case of C[C@]12CC[C@H]3[C@@H](CCC4=C(F)C(=O)CC[C@@H]43)[C@@H]1CCC2=O, the pKi [16] was 7.05.
With C[C@]12CCC(=O)C(c3ccc(OS(N)(=O)=O)cc3)=C1CC[C@@H]1[C@@H]2CC[C@]2(C)C(=O)CC[C@@H]12 the pIC50 [1] was 6.00 and the pKi [21] was 7.01.
C[C@]12CCC(=O)C=C1C[C@@H](Sc1ccc(Nc3ccc([N+](=O)[O-])cc3[N+](=O)[O-])cc1)[C@@H]1[C@@H]2CC[C@]2(C)C(=O)CC[C@@H]12 showed a pKi [7] of 7.62.
Work on C[C@]12CCC(=O)C=C1CC[C@@H]1[C@@H]2CC[C@]2(C)C(=O)[C@H](Br)C[C@@H]12 yielded an inhibition at […] [18] of 95%.
C[C@]12CCC(=O)C(SCCl)=C1CC[C@@H]1[C@@H]2CC[C@]2(C)C(=O)CC[C@@H]12 gave a pIC50 [15] of 6.03.
With C[C@]12CCC(=O)C(Oc3ccccc3)=C1CC[C@@H]1[C@@H]2CC[C@]2(C)C(=O)CC[C@@H]12 the pIC50 [20] was 6.28.

Reference: ChEMBL document CHEMBL3751755, “Developing steroidal aromatase inhibitors-an effective armament to win the battle against breast cancer” (Eur J Med Chem, 2015)
